In patent US20120220577A1, “GLYCINE B ANTAGONISTS” (Merz Pharma GmbH & Co KgaA, priority 2009, published 2012):

Each compound was assayed against NMDA receptor glycine B site (Rattus norvegicus, UniProt P35439) (assay: Whole cell patch-clamp recordings, rat hippocampal neurons (NMDA/D-Serine currents)). Settings: NMDA 200 μM + D-Serine 1 μM, -70 mV, read-out: NMDA-PC-r-HIC-NAM - IC50.
Type: cell-based
Procedure: Antagonistic potencies of the test compounds are functionally evaluated using electrophysiological whole cell patch-clamp recordings and/or fluorometric intracellular Ca^2+-imaging (FLIPR) screens.
Cell preparation is performed as described by Parsons, et al. (Neuropharmacology, 1998, 37(6), 719-727). The female Sprague-Dawley rat is anaesthetised by placing in a saturated CO2-euthanasia chamber under further quiet CO2-influx. Under these conditions the rat loses consciousness after a few seconds and is then sacrificed by cervical dislocation. After opening the abdominal cavity, embryos (E20) are removed and stored in ice cold Ca^2+- and Mg^2+-free Hank's Buffered Salt Solution (pH 7.3), containing 4 g/l glucose (HBSS-CMF). Hippocampi are then isolated from the brains of at least 8 embryos after decapitation, transferred into ice cold HBSS-CMF and washed 3 to 4 times.
Hippocampi are pre-incubated for 8 min with a 0.66% trypsin (Sigma-Aldrich) and 0.1% (20 U/ml) DNAase solution (Sigma-Aldrich) in Ca^2+-free Phosphate Buffered Saline (PBS-CF) and washed 3 times with HBSS-CMF. Cells are then mechanically dissociated by trituration in a PBS-CF solution containing 0.05% (10 U/ml) DNAase and 0.3% of the trypsin inhibitor ovomucoid (all from Sigma-Aldrich). The cells are then centrifuged at 180×g for 10 minutes, and the cell pellet re-suspended in basal Minimum essential medium (MEM, Invitrogen, Karlsruhe, Germany), again carefully triturated to ensure maximal dissociation and finally plated in the flexiPERM inserts (Thermo Fisher Scientific, Langenselbold, Germany) at a density of 15×10^3 cells/cm^2 (0.5 ml/insert) onto poly-DL-ornithine (Sigma) and mouse laminin (Invitrogen) pre-coated plastic petri dishes. After 1 hour the cells become attached to the bottom of the dish and the inserts may be removed. The cells are then nourished with 2 ml MEM supplemented with 5% foetal calf serum (FCS) and 5% horse serum and incubated at 37° C. with 95% air and 5% CO2 at 95% humidity. After 4 days in vitro (DIV) further glial mitosis is inhibited by adding 10 μl of AraC (5 μM endconcentration). The medium is completely exchanged after an additional 2 DIV and again, but only partly (50%), after 8 DIV. The cells are used for electrophysiological recordings after 11-15 DIV.
Cells are visualised using an inverted microscope and selected for patching based upon their position and morphology. Voltage clamp recordings are made in the whole cell configuration of the patch clamp technique at a holding potential of −70 mV with the aid of an EPC-10 amplifier in combination with pipette manipulator. Patch clamp pipettes are pulled from borosilicate glass using a horizontal puller (P-97 Puller, Sutter Instruments, USA) and, when filled with intracellular solution, have resistances of 1-4 MΩ.
Solutions are delivered via a home-made gravity driven very fast perfusion system (<10 ms) including valves to switch flow on and off in combination with a stepper motor-driven double-barrelled theta glass application pipette in order to expose cells to either agonist-free or agonist-containing solutions in presence or absence of antagonist.
The intracellular solution used consists of: 120 mM CsCl, 10 mM EGTA, 1 mM MgCl2, 200 μM CaCl2, 10 mM glucose and 22 mM tetraethyl ammonium chloride (TEA-CL). The corresponding extracellular bath solution contains: 140 mM NaCl, 3 mM KCl, 10 mM glucose, 10 mM HEPES, 1.5 mM CaCl2 and 4.5 mM sucrose (all from Sigma-Aldrich) pH 7.3, and is supplemented with 0.3 μM tetrodotoxin (TTX, Tocris, Bristol, U.K.) to block voltage-activated sodium channels and 0.25 μM bicuculline (Sigma-Aldrich) to block GABAA receptors. […]
O=C(O)COc1cc(C(=O)O)cc2cc(Cl)cc(Cl)c12 [Example 1, 4-Carboxymethoxy-5,7-dichloronaphthalene-2-carboxylic acid] gave an IC50 of 850 nM.
Work on O=C(COc1cc(C(=O)O)cc2cc(Cl)cc(Cl)c12)Nc1ccccc1C(=O)O [Example 3, 4-[(2-Carboxy-phenylcarbamoyl)-methoxy]-5,7-dichloro-naphthalene-2-carboxylic acid] yielded an IC50 of 493 nM.
O=C(COc1cc(C(=O)O)cc2cc(Cl)cc(Cl)c12)Nc1ccccc1CO [Example 5, 5,7-Dichloro-4-[(2-hydroxymethylphenylcarbamoyl)-methoxy]-naphthalene-2-carboxylic acid] gave an IC50 of 258 nM.
In the case of O=C(O)Cc1ccc(NC(=O)COc2cc(C(=O)O)cc3cc(Cl)cc(Cl)c23)cc1 [Example 7, 4-[(4-Carboxymethylphenylcarbamoyl)-methoxy]-5,7-dichloronaphthalene-2-carboxylic acid], the IC50 is reported as 510 nM.
O=C(O)Cc1cccc(NC(=O)COc2cc(C(=O)O)cc3cc(Cl)cc(Cl)c23)c1 [Example 13, 4-[(3-Carboxymethylphenylcarbamoyl)-methoxy]-5,7-dichloronaphthalene-2-carboxylic acid] showed an IC50 of 178 nM.
Compound CN(C(=O)COc1cc(C(=O)O)cc2cc(Cl)cc(Cl)c12)c1ccc(C(=O)O)cc1 [Example 14, 4-{[(4-Carboxy-phenyl)-methylcarbamoyl]-methoxy}-5,7-dichloronaphthalene-2-carboxylic acid] has an IC50 of 727 nM.
For O=C(O)Cc1ccccc1NC(=O)COc1cc(C(=O)O)cc2cc(Cl)cc(Cl)c12 [Example 15, 4-[(2-Carboxymethylphenylcarbamoyl)-methoxy]-5,7-dichloronaphthalene-2-carboxylic acid], the IC50 was 356 nM.
O=C(COc1cc(C(=O)O)cc2cc(Cl)cc(Cl)c12)NCc1ccccc1 [Example 18, 4-(Benzylcarbamoylmethoxy)-5,7-dichloro-naphthalene-2-carboxylic acid] gave an IC50 of 465 nM.
For CN(C(=O)COc1cc(C(=O)O)cc2cc(Cl)cc(Cl)c12)c1ccccc1C(=O)O [Example 20, 4-{[(2-Carboxyphenyl)-methylcarbamoyl]-methoxy}-5,7-dichloronaphthalene-2-carboxylic acid], the IC50 was 198 nM.
For NCc1ccc(NC(=O)COc2cc(C(=O)O)cc3cc(Cl)cc(Cl)c23)c(OCC(=O)O)c1 [Example 34, 4-[(4-Aminomethyl-2-carboxymethoxyphenylcarbamoyl)-methoxy]-5,7-dichloronaphthalene-2-carboxylic acid], the IC50 was 23 nM.
O=C(O)COc1ccccc1NC(=O)COc1cc(C(=O)O)cc2cc(Cl)cc(Cl)c12 [Example 42, 4-[(2-Carboxymethoxyphenylcarbamoyl)-methoxy]-5,7-dichloronaphthalene-2-carboxylic acid] was tested, and the IC50 was 50 nM.
Work on O=C(O)c1cc(OCC(=O)N2CCCc3ccccc32)c2c(Cl)cc(Cl)cc2c1 [Example 50, 5,7-Dichloro-4-[2-(3,4-dihydro-2H-quinolin-1-yl)-2-oxo-ethoxy]-naphthalene-2-carboxylic acid] yielded an IC50 of 542 nM.
O=C(COc1cc(C(=O)O)cc2cc(Cl)cc(Cl)c12)Nc1ccccc1OCC(=O)N1CCOCC1 [Example 54, 5,7-Dichloro-4-{[2-(2-morpholin-4-yl-2-oxo-ethoxy)-phenylcarbamoyl]-methoxy}-naphthalene-2-carboxylic acid] gave an IC50 of 169 nM.
With O=C(O)COc1ccccc1CNC(=O)COc1cc(C(=O)O)cc2cc(Cl)cc(Cl)c12 [Example 59, 4-[(2-Carboxymethoxy-benzylcarbamoyl)-methoxy]-5,7-dichloro-naphthalene-2-carboxylic acid] the IC50 was 59 nM.
O=C(COc1cc(C(=O)O)cc2cc(Cl)cc(Cl)c12)Nc1ccccc1OCc1nnn[nH]1 [Example 60, 5,7-Dichloro-4-{[2-(1H-tetrazol-5-ylmethoxy)-phenylcarbamoyl]-methoxy}-naphthalene-2-carboxylic acid] gave an IC50 of 65 nM.
In the case of COCC(Oc1cc(C(=O)O)cc2cc(Cl)cc(Cl)c12)C(=O)Nc1ccccc1OC (centres unmarked) [Example 74, 5,7-Dichloro-4-[2-methoxy-1-(2-methoxy-phenylcarbamoyl)-ethoxy]-naphthalene-2-carboxylic acid], the IC50 is reported as 288 nM.
Work on O=C(O)c1cc(OCC(=O)N2CCOc3c(CO)cccc32)c2c(Cl)cc(Cl)cc2c1 [Example 78, 5,7-Dichloro-4-[2-(8-hydroxymethyl-2,3-dihydro-benzo[1,4]oxazin-4-yl)-2-oxo-ethoxy]-naphthalene-2-carboxylic acid] yielded an IC50 of 253 nM.
